Measured values: ChEMBL document CHEMBL1955734, “JFCR39, a panel of 39 human cancer cell lines, and its application in the discovery and development of anticancer drugs” (Bioorg Med Chem, 2012)
One block for each compound: values may come before it.

Key:
[1] = molecular target: Telomerase reverse transcriptase (Homo sapiens, UniProt O14746); assay: Inhibition of telomerase
[2] = Growth inhibition of human HBC4 cells; assay type: functional, cell-based
[3] = Growth inhibition of human BSY1 cells; assay type: functional, cell-based; conditions: BSY-1
[4] = Growth inhibition of human HBC5 cells; assay type: functional, cell-based
MCF7 = assay: Growth inhibition of human MCF7 cells; assay type: functional, cell-based
MDA-MB-231 = assay: Growth inhibition of human MDA-MB-231 cells; assay type: functional, cell-based
U-251 = assay: Growth inhibition of human U251 cells; assay type: functional, cell-based
SF-268 = assay: Growth inhibition of human SF268 cells; assay type: functional, cell-based
SF-295 = assay: Growth inhibition of human SF295 cells; assay type: functional, cell-based
SF-539 = assay: Growth inhibition of human SF539 cells; assay type: functional, cell-based
SNB-75 = assay: Growth inhibition of human SNB75 cells; assay type: functional, cell-based
SNB-78 = assay: Growth inhibition of human SNB78 cells; assay type: functional, cell-based
HCC 2998 = assay: Growth inhibition of human HCC2998 cells; assay type: functional, cell-based
KM12 = assay: Growth inhibition of human KM12 cells; assay type: functional, cell-based
HT-29 = assay: Growth inhibition of human HT-29 cells; assay type: functional, cell-based
HCT-15 = assay: Growth inhibition of human HCT15 cells; assay type: functional, cell-based
HCT-116 = assay: Growth inhibition of human HCT116 cells; assay type: functional, cell-based
NCI-H23 = assay: Growth inhibition of human NCI-H23 cells; assay type: functional, cell-based
NCI-H226 = assay: Growth inhibition of human NCI-H226 cells; assay type: functional, cell-based
NCI-H522 = assay: Growth inhibition of human NCI-H522 cells; assay type: functional, cell-based
[5] = Growth inhibition of human NCI-H483 cells; assay type: functional, cell-based
A549 = assay: Growth inhibition of human A549 cells; assay type: functional, cell-based
DMS-273 = assay: Growth inhibition of human DMS273 cells; assay type: functional, cell-based
DMS-114 = assay: Growth inhibition of human DMS114 cells; assay type: functional, cell-based
LOX IMVI = assay: Growth inhibition of human LOXIMVI cells; assay type: functional, cell-based
OVCAR-3 = assay: Growth inhibition of human OVCAR3 cells; assay type: functional, cell-based
OVCAR-4 = assay: Growth inhibition of human OVCAR4 cells; assay type: functional, cell-based
OVCAR-5 = assay: Growth inhibition of human OVCAR5 cells; assay type: functional, cell-based
OVCAR-8 = assay: Growth inhibition of human OVCAR8 cells; assay type: functional, cell-based
SK-OV-3 = assay: Growth inhibition of human SKOV3 cells; assay type: functional, cell-based
[6] = Growth inhibition of human RXF631L cells; assay type: functional; conditions: RXF 631
ACHN = assay: Growth inhibition of human ACHN cells; assay type: functional, cell-based
St-4 = assay: Growth inhibition of human St-4 cells; assay type: functional, cell-based
[7] = Growth inhibition of human MKN1 cells; assay type: functional, cell-based; conditions: MKN-1
MKN-7 = assay: Growth inhibition of human MKN7 cells; assay type: functional, cell-based
MKN-28 = assay: Growth inhibition of human MKN28 cells; assay type: functional, cell-based
MKN-45 = assay: Growth inhibition of human MKN45 cells; assay type: functional, cell-based
MKN-74 = assay: Growth inhibition of human MKN74 cells; assay type: functional, cell-based
DU-145 = assay: Growth inhibition of human DU145 cells; assay type: functional, cell-based
PC-3 = assay: Growth inhibition of human PC3 cells; assay type: functional, cell-based

Sequence of Telomerase reverse transcriptase (O14746 whole entry): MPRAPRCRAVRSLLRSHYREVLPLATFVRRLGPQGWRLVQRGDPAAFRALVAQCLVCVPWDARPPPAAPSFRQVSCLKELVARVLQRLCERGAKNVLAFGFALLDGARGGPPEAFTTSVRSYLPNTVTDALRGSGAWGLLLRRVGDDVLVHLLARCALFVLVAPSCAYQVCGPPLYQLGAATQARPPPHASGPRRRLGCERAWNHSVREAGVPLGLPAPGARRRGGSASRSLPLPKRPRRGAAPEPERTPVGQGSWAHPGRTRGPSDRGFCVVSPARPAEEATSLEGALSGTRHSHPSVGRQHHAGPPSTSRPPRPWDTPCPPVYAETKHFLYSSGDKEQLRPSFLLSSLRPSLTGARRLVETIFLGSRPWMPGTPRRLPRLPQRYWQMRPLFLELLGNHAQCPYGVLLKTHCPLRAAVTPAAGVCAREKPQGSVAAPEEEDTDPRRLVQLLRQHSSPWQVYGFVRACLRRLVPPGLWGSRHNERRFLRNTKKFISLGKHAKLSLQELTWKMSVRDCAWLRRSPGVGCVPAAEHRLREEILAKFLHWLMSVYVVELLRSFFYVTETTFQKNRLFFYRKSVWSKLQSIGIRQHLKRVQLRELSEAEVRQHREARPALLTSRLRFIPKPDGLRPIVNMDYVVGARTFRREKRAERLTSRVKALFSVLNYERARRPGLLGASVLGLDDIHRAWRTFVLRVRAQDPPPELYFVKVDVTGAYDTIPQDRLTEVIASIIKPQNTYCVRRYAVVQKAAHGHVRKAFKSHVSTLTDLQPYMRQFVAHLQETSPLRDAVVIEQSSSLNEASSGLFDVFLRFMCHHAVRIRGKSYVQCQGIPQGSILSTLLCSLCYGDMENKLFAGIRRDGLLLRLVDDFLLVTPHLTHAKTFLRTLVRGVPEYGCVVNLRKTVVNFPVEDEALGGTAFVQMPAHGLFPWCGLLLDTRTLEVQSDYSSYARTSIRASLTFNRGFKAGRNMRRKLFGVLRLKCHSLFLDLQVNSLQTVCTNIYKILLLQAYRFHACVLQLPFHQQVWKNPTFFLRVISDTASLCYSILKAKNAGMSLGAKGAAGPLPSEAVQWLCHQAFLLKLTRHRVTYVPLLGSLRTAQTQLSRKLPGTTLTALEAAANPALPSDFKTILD

IC50 [1]: 2000 nM
SMILES: CCn1c(=O)/c(=C2\Sc3ccccc3N2C)s/c1=C\c1scc(C)[n+]1CC

SMILES: Cn1cc(NC(=O)CC[S+](C)C)cc1-c1nc2cc(C(=O)Nc3ccc(N(CCCl)CCCl)cc3)ccc2[nH]1
IC50 [2]: 710 nM | IC50 [3]: 710 nM | IC50 [4]: 710 nM | IC50 (MCF7): 710 nM | IC50 (MDA-MB-231): 710 nM | IC50 (U-251): 710 nM | IC50 (SF-268): 710 nM | IC50 (SF-295): 710 nM | IC50 (SF-539): 710 nM | IC50 (SNB-75): 710 nM | IC50 (SNB-78): 710 nM | IC50 (HCC 2998): 710 nM | IC50 (KM12): 710 nM | IC50 (HT-29): 710 nM | IC50 (HCT-15): 710 nM | IC50 (HCT-116): 710 nM | IC50 (NCI-H23): 710 nM | IC50 (NCI-H226): 710 nM | IC50 (NCI-H522): 710 nM | IC50 [5]: 710 nM | IC50 (A549): 710 nM | IC50 (DMS-273): 710 nM | IC50 (DMS-114): 710 nM | IC50 (LOX IMVI): 710 nM | IC50 (OVCAR-3): 710 nM | IC50 (OVCAR-4): 710 nM | IC50 (OVCAR-5): 710 nM | IC50 (OVCAR-8): 710 nM | IC50 (SK-OV-3): 710 nM | IC50 [6]: 710 nM | IC50 (ACHN): 710 nM | IC50 (St-4): 710 nM | IC50 [7]: 710 nM | IC50 (MKN-7): 710 nM | IC50 (MKN-28): 710 nM | IC50 (MKN-45): 710 nM | IC50 (MKN-74): 710 nM | IC50 (DU-145): 710 nM | IC50 (PC-3): 710 nM

IC50 [1]: 5000 nM
SMILES: CCn1c(=O)/c(=C2\Sc3ccccc3N2C)s/c1=C\c1cccc[n+]1CC

IC50 [1]: 37000 nM
SMILES: COc1ccc2cc3[n+](cc2c1OC)CCc1cc2c(cc1-3)OCO2 [BERBERINE]

GI50 (MCF7): 6.92 nM | GI50 (MDA-MB-231): 8.13 nM | GI50 (U-251): 21.9 nM | GI50 (HCC 2998): 8.91 nM | GI50 (HT-29): 17.8 nM | GI50 (HCT-15): 9.33 nM | GI50 (HCT-116): 24.6 nM | GI50 (NCI-H23): 22.9 nM | GI50 (NCI-H226): 3.63 nM | GI50 (NCI-H522): 3.55 nM | GI50 (A549): 8.51 nM | GI50 (OVCAR-3): 6.76 nM | GI50 (OVCAR-4): 2.63 nM | GI50 (OVCAR-5): 26.9 nM | GI50 (OVCAR-8): 14.4 nM | GI50 (SK-OV-3): 3.89 nM | GI50 (ACHN): 11.2 nM | GI50 (MKN-7): 20.9 nM | GI50 (MKN-28): 85.1 nM | GI50 (MKN-45): 4.57 nM | GI50 (MKN-74): 38 nM | GI50 (DU-145): 6.92 nM | GI50 (PC-3): 2.19 nM
SMILES: Cn1c(=O)n(-c2ccc(C(C)(C)C#N)cc2)c2c3cc(-c4cnc5ccccc5c4)ccc3ncc21 [DACTOLISIB]
GI50 [2]: 2.46 nM | GI50 [3]: 3.31 nM | GI50 [4]: 13.5 nM | GI50 (SF-268): 12 nM | GI50 (SF-295): 4.9 nM | GI50 (SF-539): 2.57 nM | GI50 (SNB-75): 2.63 nM | GI50 (SNB-78): 2.24 nM | GI50 (KM12): 28.8 nM | GI50 [5]: 7.76 nM | GI50 (DMS-273): 15.8 nM | GI50 (DMS-114): 4.07 nM | GI50 (LOX IMVI): 2.19 nM | GI50 [6]: 6.17 nM | GI50 (St-4): 33.9 nM | GI50 [7]: 3.89 nM

GI50 (MCF7): 46.8 nM | GI50 (MDA-MB-231): 3470 nM | GI50 (U-251): 3160 nM | GI50 (HCC 2998): 513 nM | GI50 (HT-29): 501 nM | GI50 (HCT-15): 759 nM | GI50 (HCT-116): 1350 nM | GI50 (NCI-H23): 1860 nM | GI50 (NCI-H226): 617 nM | GI50 (NCI-H522): 263 nM | GI50 (A549): 708 nM | GI50 (OVCAR-3): 195 nM | GI50 (OVCAR-4): 1740 nM | GI50 (OVCAR-5): 550 nM | GI50 (OVCAR-8): 1860 nM | GI50 (SK-OV-3): 302 nM | GI50 (ACHN): 851 nM | GI50 (MKN-7): 316 nM | GI50 (MKN-28): 3020 nM | GI50 (MKN-45): 282 nM | GI50 (MKN-74): 955 nM | GI50 (DU-145): 1410 nM | GI50 (PC-3): 219 nM
SMILES: CS(=O)(=O)N1CCN(Cc2cc3nc(-c4cccc5[nH]ncc45)nc(N4CCOCC4)c3s2)CC1 [PICTILISIB]
GI50 [2]: 933 nM | GI50 [3]: 126 nM | GI50 [4]: 251 nM | GI50 (SF-268): 4070 nM | GI50 (SF-295): 427 nM | GI50 (SF-539): 316 nM | GI50 (SNB-75): 79.4 nM | GI50 (SNB-78): 302 nM | GI50 (KM12): 1740 nM | GI50 [5]: 275 nM | GI50 (DMS-273): 372 nM | GI50 (DMS-114): 1200 nM | GI50 (LOX IMVI): 513 nM | GI50 [6]: 132 nM | GI50 (St-4): 2750 nM | GI50 [7]: 83.2 nM

GI50 (MCF7): 182 nM | GI50 (MDA-MB-231): 813 nM | GI50 (U-251): 1820 nM | GI50 (HCC 2998): 851 nM | GI50 (HT-29): 646 nM | GI50 (HCT-15): 525 nM | GI50 (HCT-116): 1380 nM | GI50 (NCI-H23): 1050 nM | GI50 (NCI-H226): 407 nM | GI50 (NCI-H522): 263 nM | GI50 (A549): 676 nM | GI50 (OVCAR-3): 389 nM | GI50 (OVCAR-4): 1620 nM | GI50 (OVCAR-5): 1200 nM | GI50 (OVCAR-8): 1260 nM | GI50 (SK-OV-3): 398 nM | GI50 (ACHN): 603 nM | GI50 (MKN-7): 575 nM | GI50 (MKN-28): 1950 nM | GI50 (MKN-45): 245 nM | GI50 (MKN-74): 1020 nM | GI50 (DU-145): 724 nM | GI50 (PC-3): 145 nM
SMILES: FC(F)c1nc2ccccc2n1-c1nc(N2CCOCC2)nc(N2CCOCC2)n1 [ZSTK-474]
GI50 [2]: 912 nM | GI50 [3]: 275 nM | GI50 [4]: 170 nM | GI50 (SF-268): 1480 nM | GI50 (SF-295): 347 nM | GI50 (SF-539): 479 nM | GI50 (SNB-75): 155 nM | GI50 (SNB-78): 355 nM | GI50 (KM12): 2240 nM | GI50 [5]: 372 nM | GI50 (DMS-273): 339 nM | GI50 (DMS-114): 479 nM | GI50 (LOX IMVI): 288 nM | GI50 [6]: 316 nM | GI50 (St-4): 1910 nM | GI50 [7]: 245 nM
